Common to all, as to assay type: cell-based
Test [1] deals with histone 3 phosphorylation in colon carcinoma (HCT116). As to the kind of experiment: p-Histone3 assay: inhibition of histone 3 phosphorylation in HCT116. The note with it: Homo sapiens, HCT-116, 24 h, HCT116, 24 hours compound treatment. How it is done:
Compounds were assayed for the inhibition of histone 3 phosphorylation in colon carcinoma (HCT116). Briefly, 20,000 cells/well were seeded in a 96-well black-walled, poly-d-lysine plates in RPMI+10% FBS and incubated at 37° C. in 5% CO2 overnight. The following day, the cells were treated with compounds for 24 hours at 37° C. Following compound treatment; plates were centrifuged at 1000 rpm for 2 minutes and washed twice with 100 μl of cold sterile TBS. Cells were then fixed with cold 3.7% formaldehyde in TBS (4° C. for 1 hour) and then permeabolized with 0.1% Triton-X-100 in TBS (room temperature for 30 minutes). Plates were then washed with of 0.25% BSA-TBS and blocked with BSA solution for 1 hour at room temperature while shaking. The supernatant was removed and replaced with diluted primary antibody (anti-phospho-histone 3, serine 10, Cell Signaling) at 1:250 in 0.25% BSA-TBS and incubated overnight at 4° C. The plates were washed and treated with diluted secondary antibody (anti-rabbit Eu-labeled) at 1:10000 in 0.25% BSA-TBS (room temperature for 1 hour). The antibody solution was removed from each well and washed eight times. The wash buffer was replaced with 50 μl pre-warmed enhancement solution and mixed on the orbital shaker for 10 minutes. Fluorescence was detected with a Victor V Fluorescence Detector. The data are expressed as percent inhibition: % inhibition=100−((Signal with inhibitor-background)/(Signal without inhibitor-background))×100.

The subject of the next test is HCT116 cells. In words: Tumor cell proliferation (Alamar Blue), HCT116. The following applies: Homo sapiens, HCT-116, 72 h. In a few lines:
(§1)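 Cells seeded at 3.0×10^3/well in RPMI with 10% FBS for 16 h, then treated with compound (added medium held 40 μM to 18 nM compound, 0.4% DMSO) for 72 h at 37 °C, 5% CO2. Viability by Alamar Blue, 3 h, fluorescence 544/590 nm. IC50 by linear regression of log concentration versus percent inhibition.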
(Alamar Blue is a resazurin reagent that responds to reducing activity.)

For test [2], the system named is FGFR stimulated HUVEC proliferation. As to the kind of experiment: BRDU growth factor stimulated proliferation of HUVEC (bFGF stimulation). The following applies: Homo sapiens, 72 h, 1.5 ng/ml bFGF, 3 days, BrdU incorporation. How it is done:
(§2) BRDU Growth Factor Stimulated Proliferation of HUVEC
(§3) Exponentially growing human umbilical vein endothelial cells (HUVEC; Cat# CC-2519A, Cambrex, Walkersville, Md.) were seeded at two thousand cells/well into Collagen IV-coated 96 well plates (Cat#35-4429, Becton Dickinson, Bedford, Mass.) in assay media containing RPMI-1640 (Cat#11875-093, Gibco, Carlsbad, Calif.), 0.5% charcoal-stripped serum (Cat# SH30068.03, HyClone, Logan, Utah), and 1% N-2 supplement (Cat#17502-048, Gibco, Carlsbad, Calif.). Fours hours after incubating the plates at 37° C. in 5% CO2, the cells were treated with different concentrations of compound (diluted in assay media with a final DMSO concentration=0.1%) and then were immediately stimulated with 80 ng/ml of vascular endothelial growth factor (VEGF, Cat#100-20, PeproTech, Rocky Hill, N.J.) or 1.5 ng/ml of basic fibroblast growth factor (bFGF, Catt#100-18B, PeproTech, Rocky Hill, N.J.). Treated cells were incubated for 3 days at 37° C. in 5% CO2. DNA synthesis was measured via the incorporation of bromodeoxyuridine (BrdU) into newly synthesized DNA using the Amersham Cell Proliferation BioTrack ELISA system (Cat# RPN250, Amersham, Piscataway, N.J.). Diluted BrdU solution (20 μl of stock BrdU diluted 1:20 fold into assay media) was added to each well and incubation proceeded for 6 hours at 37° C. in 5% CO2. The media was removed and the cells were fixed according to the specifications of the Amersham assay kit for 30 minutes at room temperature. After removing the fixative, blocking buffer (supplied by Amersham kit; 200 μl/well) was added and the plates were stored at 4° C. overnight. The blocking buffer was aspirated and peroxidase-labeled anti-BrdU antibody (supplied by Amersham kit; 100 μl/well) was added and incubated for 3 hours at room temperature. The plates were washed three times with wash buffer (supplied by Amersham kit; 300 μl/well/wash). Immediately following the washes, 100 μl of the TMB-substrate was dispensed into each well and the plates were further incubated for 30 minutes at room temperature. The reaction was terminated by the addition of 25 μl of 1M H2SO4. Plates were read immediately at 450 nm using a SpectraMAX 250 spectrophotometer plate reader (Molecular Devices, Sunnyvale, Calif.). The software utilized was SoftMAX pro v.2.4.1.

Test [3] has as its system VEGFR stimulated HUVEC proliferation. As to the kind of experiment: BRDU growth factor stimulated proliferation of HUVEC (VEGF stimulation). The note with it: Homo sapiens, 72 h, 80 ng/ml VEGF, 3 days, BrdU incorporation. How it is done: as §2, §3
Background: Dividing cells build labelled thymidine or BrdU into new DNA.

Another test relates to MDA-MB-231 cells. In words: Tumor cell proliferation (Alamar Blue), MDA-MB-231. The note with it: Homo sapiens, MDA-MB-231, 72 h. In a few lines: as §1
Test [4] has as its system VEGF stimulated Phospho-ERK in HUVEC. As to the kind of experiment: Growth factor stimulated p-ERK assay in HUVECs (VEGF stimulation, ERK1/2 Bioplex). The note with it: Homo sapiens, compound 2 hrs, then 50 ng/ml VEGF 10 min; for inhibition at 0.1 µM: @ 100 nM. In a few lines: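 HUVECs in serum-free RPMI 1640/0.1% BSA pretreated with compound 2 hrs, then stimulated 10 min with 50 ng/ml VEGF (or bFGF). Lysate phospho-ERK1/2 quantified by bead-based Bio-Plex immunoassay on Luminex.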

SMILES strings stand for the structures.

For 14 compounds, IC50 and inhibition results are on record in patent US7563791B2, “Pyrrolotriazine derivatives useful for treating hyper-proliferative disorders and diseases associated with angiogenesis” (Bayer Pharmaceuticals Corporation, priority 2004, dated 2009).

Regarding `CCOC(=O)c1cn2ncnc(N)c2c1-c1ccc(NC(=O)Nc2ccccc2C(F)(F)F)cc1` [Example 7, ethyl 4-amino-5-{4-[({[2-(trifluoromethyl)phenyl]amino}carbonyl)amino]phenyl}pyrrolo[2,1-f][1,2,4]triazine-6-carboxylate], the half-maximal inhibitory concentration (IC50) (in general, the concentration at which inhibition is half-maximal) in test [1] was above 0.5 µM; in test [1] (bound given in μM), below 1 µM.

With `CCOC(=O)c1cn2ncnc(N)c2c1-c1ccc(NC(=O)Nc2ccc3c(c2)OCO3)cc1` [Example 13, ethyl 4-amino-5-(4-{[(1,3-benzodioxol-5-ylamino)carbonyl]amino}phenyl)pyrrolo[2,1-f][1,2,4]triazine-6-carboxylate], the figures for the 50% inhibitory concentration (IC50) in test [1] and in test [1] (bound given in μM) were above 0.5 µM and below 1 µM, respectively.

`Nc1ncnn2cc(C(=O)NCC(F)(F)F)c(-c3ccc(NC(=O)Nc4cc(C(F)(F)F)ccc4F)cc3)c12` [Example 70, 4-amino-5-{4-[({[2-fluoro-5-(trifluoromethyl)phenyl]amino}carbonyl)amino]phenyl}-N-(2,2,2-trifluoroethyl)pyrrolo[2,1-f][1,2,4]triazine-6-carboxamide]: the IC50 in the test on HCT116 cells is below 0.5 µM; in test [2], below 0.1 µM; in test [3] it was below 10 nM; with MDA-MB-231 cells, below 0.5 µM. Also, in test [4], the inhibition (in general, the share of the control response that was lost under treatment) at 0.1 µM is above 50%.

In the case of `Nc1ncnn2cc(C(=O)NCC(F)(F)F)c(-c3ccc(NC(=O)Nc4ccc(F)c(C(F)(F)F)c4)cc3)c12` [Example 88, 4-amino-5-{4-[({[4-fluoro-3-(trifluoromethyl)phenyl]amino}carbonyl)amino]phenyl}-N-(2,2,2-trifluoroethyl)pyrrolo[2,1-f][1,2,4]triazine-6-carboxamide], in test [1], the 50% inhibitory concentration (IC50) is below 0.5 µM.

For the compound `Nc1ncnn2cc(C(=O)NCC(F)(F)F)c(-c3ccc(NC(=O)Nc4cccc(CC(F)(F)F)c4)cc3)c12` [Example 92, 4-amino-N-(2,2,2-trifluoroethyl)-5-{4-[({[3-(2,2,2-trifluoroethyl)phenyl]amino}carbonyl)amino]phenyl}pyrrolo[2,1-f][1,2,4]triazine-6-carboxamide], the IC50 in test [1] was below 0.5 µM.

As for `N#Cc1cn2ncnc(N)c2c1-c1ccc(NC(=O)Nc2cc(C(F)(F)F)ccc2F)cc1` [Example 99, N-[4-(4-amino-6-cyanopyrrolo[2,1-f][1,2,4]triazin-5-yl)phenyl]-N′-[2-fluoro-5-(trifluoromethyl)phenyl]urea], the concentration for half-maximal inhibition (IC50) is 1.5 to 5 µM with HCT116 cells (bounds given in μM); below 0.1 µM in test [2]; 100 to 500 nM in test [3]; above 0.5 µM in the test with MDA-MB-231 cells; below 1.5 µM in the test on MDA-MB-231 cells (bounds given in μM). The same compound returned an inhibition at 0.1 µM in test [4] below 50%. In test [4] (@ 1 μM), this compound came in with an inhibition at 1 µM above 50%.

In test [1], `Nc1ncnn2cc(C(=O)NCC(F)(F)F)c(-c3ccc(NC(=O)Nc4cccc(C(F)(F)F)n4)cc3)c12` [Example 139, 4-amino-N-(2,2,2-trifluoroethyl)-5-{4-[({[6-(trifluoromethyl)pyridin-2-yl]amino}carbonyl)amino]phenyl}pyrrolo[2,1-f][1,2,4]triazine-6-carboxamide] came in with an IC50 below 0.5 µM.

`CC(C)(C)NC(=O)c1cn2ncnc(N)c2c1-c1ccc(NC(=O)Nc2cccc(C(F)(F)F)n2)cc1` [Example 164, 4-amino-N-(tert-butyl)-5-{4-[({[6-(trifluoromethyl)pyridin-2-yl]amino}carbonyl)amino]phenyl}pyrrolo[2,1-f][1,2,4]triazine-6-carboxamide] gave an IC50 in test [1] below 0.5 µM.

In test [1], `CC(C)(C)CNC(=O)c1cn2ncnc(N)c2c1-c1ccc(NC(=O)Nc2cccc(C(F)(F)F)n2)cc1` [Example 165, 4-amino-N-(2,2-dimethylpropyl)-5-{4-[({[6-(trifluoromethyl)pyridin-2-yl]amino}carbonyl)amino]phenyl}pyrrolo[2,1-f][1,2,4]triazine-6-carboxamide] had an IC50 below 0.5 µM.

Regarding `Nc1ncnn2cc(-c3nc(CO)co3)c(-c3ccc(NC(=O)Nc4cc(C(F)(F)F)ccn4)cc3)c12` [Example 234, N-(4-{4-amino-6-[4-(hydroxymethyl)-1,3-oxazol-2-yl]pyrrolo[2,1-f][1,2,4]triazin-5-yl}phenyl)-N′-[4-(trifluoromethyl)pyridin-2-yl]urea], the IC50 in the test on HCT116 cells (bounds given in μM) lay within 1.5 to 5 µM; in test [2], 0.1 to 0.5 µM; in test [3], 10 to 100 nM; with MDA-MB-231 cells (bounds given in μM), 1.5 to 5 µM.

As to `CC(C)(C)c1cc(NC(=O)Nc2ccc(-c3c(CO)cn4ncnc(N)c34)cc2)n(-c2ccc(F)cc2)n1` [Example 239, N-{4-[4-amino-6-(hydroxymethyl)pyrrolo[2,1-f][1,2,4]triazin-5-yl]phenyl}-N′-[3-tert-butyl-1-(4-fluorophenyl)-1H-pyrazol-5-yl]urea], the half-maximal inhibitory concentration (IC50) was above 0.5 µM in the test on HCT116 cells; below 1.5 µM in the test on HCT116 cells (bounds given in μM); 0.1 to 0.5 µM in test [2]; 10 to 100 nM in test [3]; above 0.5 µM with MDA-MB-231 cells; below 1.5 µM with MDA-MB-231 cells (bounds given in μM).

`N#CCc1cn2ncnc(N)c2c1-c1ccc(NC(=O)Nc2cc(C(F)(F)F)ccc2F)cc1` [Example 240, N-{4-[4-amino-6-(cyanomethyl)pyrrolo[2,1-f][1,2,4]triazin-5-yl]phenyl}-N′-[2-fluoro-5-(trifluoromethyl)phenyl]urea]: the IC50 in the test with HCT116 cells (bounds given in μM) is 1.5 to 5 µM; in test [2], above 0.5 µM; in test [2] (bound given in μM), below 1 µM; in test [3], 100 to 500 nM; with MDA-MB-231 cells (bounds given in μM) it was 1.5 to 5 µM.

Consider `Nc1ncnn2cc(CO)c(-c3ccc(NC(=O)Nc4cc(C(F)(F)F)ccn4)c(F)c3)c12` [Example 243, N-{4-[4-amino-6-(hydroxymethyl)pyrrolo[2,1-f][1,2,4]triazin-5-yl]-2-fluorophenyl}-N′-[4-(trifluoromethyl)pyridin-2-yl]urea], for which the IC50 in the test with HCT116 cells (bounds given in μM) is 1.5 to 5 µM; in test [2], 0.1 to 0.5 µM; in test [3] it was 10 to 100 nM; in the test with MDA-MB-231 cells (bounds given in μM), 1.5 to 5 µM.

Consider `COCc1cn2ncnc(N)c2c1-c1ccc(NC(=O)Nc2cc(C(F)(F)F)ccn2)c(F)c1` [Example 247, N-{4-[4-amino-6-(methoxymethyl)pyrrolo[2,1-f][1,2,4]triazin-5-yl]-2-fluorophenyl}-N′-[4-(trifluoromethyl)pyridin-2-yl]urea], for which the IC50 was in the range of 1.5 to 5 µM in the test on HCT116 cells (bounds given in μM), 0.1 to 0.5 µM in test [2], 100 to 500 nM in test [3] and 1.5 to 5 µM in the test on MDA-MB-231 cells (bounds given in μM).
